Residue numbers refer to the chain shown, from its start. Names and notes keep the numbering of the source. Values joined by “and” are separate entries in the source; they are usually repeats but may differ in a detail not shown here. Equal entries are not always repeated. Where two headings read alike, the source gives them in different places.
What was measured:
ELIC T28D [1] = target: T1, ELIC T28D (Dickeya chrysanthemi, UniProt P0C7B7, INS163G/T28D); test: biochemical; format: binding, Erwinia chrisanthemi; settings: ITC
ELIC R91A = ELIC R91A (Dickeya chrysanthemi, UniProt P0C7B7, INS163G/R91A); test: biochemical; format: binding, Erwinia chrisanthemi; settings: read-out: Keff
ELIC R91A/Y258A = ELIC R91A/Y258A (Dickeya chrysanthemi, UniProt P0C7B7, R91A/Y257A); test: biochemical; format: binding, Erwinia chrisanthemi; settings: read-out: Keff
ELIC R91A/F116A = ELIC R91A/F116A (Dickeya chrysanthemi, UniProt P0C7B7, F116A/R91A); test: biochemical; format: binding, Erwinia chrisanthemi; settings: read-out: Keff
ELIC ΔL29 = ELIC ΔL29 (Dickeya chrysanthemi, UniProt P0C7B7, DEL29-29/INS163G); format: cell-based, Erwinia chrisanthemi; settings: ELIC woL29 (deletion of Leu29), 0.5 mM Ca2+, mean of 4 oocytes
Source text: (§1) X. laevis oocytes were obtained either from Ecocyte or from an in-house facility. Animal procedures and preparation of oocytes followed standard procedures and were in accordance with the Swiss Cantonal and Federal legislation relating to animal experimentation. Plasmid DNA containing the genes coding for the respective constructs for expression in X. laevis oocytes were linearized by MluI, and capped mRNA was transcribed with the mMessage mMachine kit (Ambion) and purified with the RNeasy kit (Qiagen). 10–200 ng of mRNA was injected into defolliculated X. laevis oocytes, which were subsequently incubated in Barth’s solution (88 mM NaCl, 1 mM KCl, 1 mM CaCl2, 0.33 mM Ca(NO3)2, 0.82 mM MgSO4, 10 mM Na-Hepes (pH 7.4) and 50 μg / ml Gentamycin) and stored at 16°C. One to three days after injection, two-electrode voltage clamp measurements were performed at 20°C (OC-725B, Warner Instrument Corp.). For ELIC, maximal currents were recorded in a bath solution containing 10 mM Hepes (pH 7), 130 mM NaCl, 2 mM KCl, 0.5 mM CaCl2 and either 5 mM or 25 mM Cysteamine. […] Dose-response experiments were carried out at agonist concentrations indicated in the respective figures. Voltage was clamped at −40 mV, and data was filtered at 20 Hz unless stated otherwise.

ELIC L29A = ELIC L29A (Dickeya chrysanthemi, UniProt P0C7B7, INS163G/L29A); format: cell-based, Erwinia chrisanthemi; settings: 0.5 mM Ca2+, mean of 3 oocytes
Source text: as §1

ELIC WT [2] = target: T2, ELIC WT (Dickeya chrysanthemi, UniProt P0C7B7, INS163G); test: Two-electrode voltage clamp dose-response, ELIC WT in X. laevis oocytes; format: cell-based, Erwinia chrisanthemi; settings: 0.5 mM Ca2+, mean of 4 oocytes
Source text: X. laevis oocytes were obtained either from Ecocyte or from an in-house facility. Animal procedures and preparation of oocytes followed standard procedures and were in accordance with the Swiss Cantonal and Federal legislation relating to animal experimentation. Plasmid DNA containing the genes coding for the respective constructs for expression in X. laevis oocytes were linearized by MluI, and capped mRNA was transcribed with the mMessage mMachine kit (Ambion) and purified with the RNeasy kit (Qiagen). 10–200 ng of mRNA was injected into defolliculated X. laevis oocytes, which were subsequently incubated in Barth’s solution (88 mM NaCl, 1 mM KCl, 1 mM CaCl2, 0.33 mM Ca(NO3)2, 0.82 mM MgSO4, 10 mM Na-Hepes (pH 7.4) and 50 μg / ml Gentamycin) and stored at 16°C. One to three days after injection, two-electrode voltage clamp measurements were performed at 20°C (OC-725B, Warner Instrument Corp.). For ELIC, maximal currents were recorded in a bath solution containing 10 mM Hepes (pH 7), 130 mM NaCl, 2 mM KCl, 0.5 mM CaCl2 and either 5 mM or 25 mM Cysteamine. For GLIC, the maximal currents were recorded in a bath solution containing 10 mM Citrate (pH 4), 130 mM NaCl, 2 mM KCl, 1.8 mM CaCl2 and 1 mM MgCl2. Dose-response experiments were carried out at agonist concentrations indicated in the respective figures. Voltage was clamped at −40 mV, and data was filtered at 20 Hz unless stated otherwise. Surface expression in constructs containing an HA-tag was assayed after electrophysiological characterization as described. For that purpose, the oocytes were placed in a 96-well plate (TPP) and incubated in ND96 solution (93.5 mM NaCl, 2 mM KCl, 1.8 mM CaCl2, 2 mM MgCl2 and 10 mM Hepes, pH 7.4) containing 1% BSA for at least 30 min. All steps were carried out at 4°C with the same buffer unless mentioned otherwise. Oocytes were subsequently transferred into buffer containing 1 μg/ml rat monoclonal anti-HA antibody (3F10, Roche) for 1 h, washed 3 times and incubated with buffer containing 0.16 μg/ml horseradish peroxidase (HRP) coupled to a secondary antibody (HRP-conjugated goat anti-rat F(Ab)2 fragments, Jackson) for 30–60 min. The oocytes were washed 5 times with ND96 solution and subsequently transferred to a white 96-well plate (flat bottom, Nunclon Delta Surface). The solution was aspirated, 30 μl of Super Signal ELISA femto solutions 1 and 2 (Pierce) was added, and luminescence was quantitated with a Tecan infinite M1000 plate reader.

ELIC T28D [3] = target: T1, ELIC T28D; format: cell-based, Erwinia chrisanthemi; settings: 0.5 mM Ca2+, mean of 5 oocytes
Source text: as §1

ELIC T28A = ELIC T28A (Dickeya chrysanthemi, UniProt P0C7B7, INS163G/T28A); format: cell-based, Erwinia chrisanthemi; settings: for I/Imax mean: ELIC T28A, 0.5 mM Ca2+, mean of 4 oocytes
Source text: as §1

ELIC P254A = ELIC P254A (Dickeya chrysanthemi, UniProt P0C7B7, P253A); format: cell-based, Erwinia chrisanthemi
Source text: as §1

ELIC = tested on: ELIC; design: method as in PMID 21713033; settings: two-electrode voltage clamp recordings, ELIC WT, in the absence of Ca2+; cited from earlier work
ELIC resting state = settings: kinetic analysis of single channel recordings of ELIC; read-out: dissociation constant to the resting state; cited from earlier work
ELIC WT [4] = target: T2, ELIC WT; test: biochemical; format: binding, Erwinia chrisanthemi
[5] = target: ELIC double mutant R91A/Y258A; test: SEC
[6] = target: ELIC ligand binding site mutant R91A; test: SEC
[7] = target: the molecule itself; test: SEC; gel filtration on Superdex 200 at 4°C in buffer with 0.145% UDM after removal of His10-MBP; pentamer peak pooled for ITC
SEC = target: the molecule itself; test: SEC

In the case of `CC(=O)OCC[N+](C)(C)C` [acetylcholine], the “binding of the antagonist compared to WT” value (ELIC T28D [1]; ELIC T28D versus WT) is reported as “unchanged”, the Kd (ELIC R91A) is reported as 1.4 mM and the Kd (ELIC R91A/Y258A) is reported as 2 mM. It also gave a Kd (ELIC R91A/F116A) of 1.8 mM.

With `NCCS` [cysteamine] the I/Imax mean (ELIC ΔL29; conc cys. 0.25 (mM)) was 0.10, the I/Imax mean (ELIC ΔL29; conc cys. 0.5 (mM)) was 0.43 and the I/Imax mean (ELIC ΔL29; conc cys. 0.75 (mM)) was 0.64. For the same molecule, the I/Imax mean (ELIC ΔL29; conc cys. 1 (mM)) was 0.86, the I/Imax mean (ELIC ΔL29; conc cys. 2.5 (mM)) was 1.00 and the I/Imax mean (ELIC L29A; conc cys. 0.1 (mM)) was 0.16. It also gave an I/Imax mean (ELIC L29A; conc cys. 0.25 (mM)) of 0.69, an I/Imax mean (ELIC L29A; conc cys. 0.35 (mM)) of 0.79 and an I/Imax mean (ELIC L29A; conc cys. 0.5 (mM)) of 0.88. The I/Imax mean (ELIC L29A; conc cys. 0.75 (mM)) was 1.00, the I/Imax mean (ELIC WT [2]; conc cys. 0.1 (mM)) was 0.00 and the I/Imax mean (ELIC WT [2]; conc cys. 0.25 (mM)) was 0.00655. It also gave an I/Imax mean (ELIC WT [2]; conc cys. 0.5 (mM)) of 0.09, an I/Imax mean (ELIC WT [2]; conc cys. 0.75 (mM)) of 0.32 and an I/Imax mean (ELIC WT [2]; conc cys. 1 (mM)) of 0.54. For the same molecule, the I/Imax mean (ELIC WT [2]; conc cys. 5 (mM)) was 1.00, the I/Imax mean (ELIC T28D [3]; conc cys. 0.01 (mM)) was 0.13 and the I/Imax mean (ELIC T28D [3]; conc cys. 0.025 (mM)) was 0.63. The I/Imax mean (ELIC T28D [3]; conc cys. 0.05 (mM)) was 0.96, the I/Imax mean (ELIC T28D [3]; conc cys. 0.1 (mM)) was 1.00 and the “EC50 higher than WT” value (ELIC T28A; ELIC T28A versus WT, two-electrode voltage clamp) was 3.5 fold. The I/Imax mean (ELIC T28A; conc cys. 1.00 (mM)) was 0.0138, the I/Imax mean (ELIC T28A; conc cys. 2.50 (mM)) was 0.34 and the I/Imax mean (ELIC T28A; conc cys. 5.00 (mM)) was 0.56. For the same molecule, the I/Imax mean (ELIC T28A; conc cys. 10.00 (mM)) was 0.83, the I/Imax mean (ELIC T28A; conc cys. 25.00 (mM)) was 1.00 and the “I/Imax mean” value (ELIC P254A; conc cys. 0.25 (unit not given)) was 0.0189. The “I/Imax mean” value (ELIC P254A; conc cys. 0.5 (unit not given)) was 0.14, the “I/Imax, single oocyte” value (ELIC P254A; conc cys. 0.5 (unit not given), listed as cys.) was 0.13 and 0.12 and 0.19 and the “I/Imax mean” value (ELIC P254A; conc cys. 0.75 (unit not given)) was 0.41. The “I/Imax, single oocyte” value (ELIC P254A; conc cys. 0.75 (unit not given), listed as cys.) was 0.33 and 0.45 and 0.39 and 0.42, the “I/Imax mean” value (ELIC P254A; conc cys. 1 (unit not given)) was 0.51 and the “I/Imax, single oocyte” value (ELIC P254A; conc cys. 1 (unit not given), listed as cys.) was 0.42 and 0.56 and 0.47. For the same molecule, the “I/Imax mean” value (ELIC P254A; conc cys. 2.5 (unit not given)) was 0.90, the “I/Imax, single oocyte” value (ELIC P254A; conc cys. 2.5 (unit not given), listed as cys.) was 0.82 and 0.97 and 0.85 and 0.95 and 0.92 and the “I/Imax mean” value (ELIC P254A; conc cys. 5 (unit not given)) was 1.00. For the same molecule, the “I/Imax, single oocyte” value (ELIC P254A; conc cys. 5 (unit not given)) was 1.00.

For `CCCN` [propylamine], the “decrease in Keff concentration compared to WT” value (ELIC T28D [1]; ELIC T28D versus WT) is listed as 90 fold, the Kd (ELIC T28D [1]; ELIC mutant T28D, agonist, read-out: Keff) is listed as 0.09 mM and the EC50 (ELIC) is listed as 0.45 mM. For the same molecule, the Kd (ELIC R91A; ITC, ELIC ligand binding site mutant R91A, 4°C) was 1.1 mM, the Kd (ELIC R91A/Y258A; ITC, ELIC double mutant R91A/Y258A, 4°C) was 0.9 mM and the Kd (ELIC R91A/F116A; ITC, ELIC double mutant R91A/F116A, 4°C) was 0.8 mM. The Kd (ELIC resting state) was 7.1 mM, the “Keff (ITC) higher than EC50 (two-electrode voltage clamp)” value (ELIC WT [4]) was “about 20 fold” and the Kd (ELIC WT [4]; ITC, ELIC WT in detergent (UDM), 4°C, single-site isotherm, read-out: effective dissociation constant (Keff)) was 8 mM.

With “ELIC double mutant R91A/Y258A (receptor)” the stoichiometry N [5] was 5.

“ELIC ligand binding site mutant R91A (receptor)” gave a stoichiometry N [6] of 5.

B1: ELIC wild type (receptor)
chain: APADNAADARPVDVSVSIFINKIYGVNTLEQTYKVDGYIVAQWTGKPRKTPGDKPLIVENTQIERWINNGLWVPALEFINVVGSPDTGNKRLMLFPDGRVIYNARFLGSFSNDMDFRLFPFDRQQFVLELEPFSYNNQQLRFSDIQVYTENIDNEEIDEWWIRKASTHISDIRYDHLSSVQPNQNEFSRITVRIDAVRNPSYYLWSFILPLGLIIAASWSVFWLESFSERLQTSFTLMLTVVAYAFYTSNILPRLPYTTVIDQMIIAGYGSIFAAILLIIFAHHRQAMGVEDDLLIQRCRLAFPLGFLAIGCVLVIRGITL
notes: ELIC, prokaryotic pentameric ligand-gated ion channel; GenBank WP_013319743 printed; Homopentamer; purified for ITC with small-molecule ligands; also called ELIC WT; source: E. coli BL21-DE3, purified (extracted in UDM, Ni-NTA, HRV 3C cleavage, Superdex 200 gel filtration); not shown: His10, N-terminal, cleaved
For B1, the “stoichiometry N” value [7] was 5.

B2: ELIC double mutant R91A/F116A (receptor)
chain: B1 chain with R91A, F116A
notes: source: E. coli BL21-DE3, purified (extracted in UDM, Ni-NTA, HRV 3C cleavage, Superdex 200 gel filtration)
In the case of B2, the “stoichiometry N” value (SEC) is reported as 5.

Source: paper PMC4778918, “Signal Transduction at the Domain Interface of Prokaryotic Pentameric Ligand-Gated Ion Channels” (PLoS Biology, 2016)
